From PubChem BioAssay AID1963838 (Molecular Pharmacology Branch, DTP, NCI, 2024)

Test system: 855422-203-R-J1-PDC complex spheroid viability
Experiment: Anticancer human tumor 855422-203-R-J1-PDC patient-derived bladder carcinoma cell line growth inhibition [POLQ]
Details: for IC50: curve of first compound; for viability, T/C: stronger effect = lower value; active means viability on the fitted dose curve at most 10% of control; inactive means the rest
Procedure, shortened: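 PDC + HUVEC + MSC complex spheroids; POLQ inhibitors ± partner drugs; top conc. at/near clinical Cmax, else 10 microM (SN-38 1 microM), half-log dilutions; 37 degrees C, 5% CO2.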

[1] = second compound 0.0316 µM, first compound 0.0316 µM
[2] = second compound 0.0316 µM, first compound 0.1 µM
[3] = second compound 0.1 µM, first compound 0.0316 µM
[4] = second compound 0.1 µM, first compound 0.1 µM
[5] = second compound 0.316 µM, first compound 0.0316 µM
[6] = second compound 0.316 µM, first compound 0.1 µM
[7] = second compound 1 µM, first compound 0.0316 µM
[8] = second compound 1 µM, first compound 0.1 µM
[9] = second compound 3.16 µM, first compound 0.0316 µM
[10] = second compound 3.16 µM, first compound 0.1 µM
[11] = second compound 10 µM, first compound 0.0316 µM
[12] = second compound 10 µM, first compound 0.1 µM
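Further: spheroids exposed to compounds for seven days before readout.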

COc1ccc([C@@H](O)c2cc(-c3ncnc4cc(N5CCOCC5)ccc34)c(F)cc2Cl)nn1 + COC1C(OC(N)=O)C(O)C(Oc2ccc3c(O)c(NC(=O)c4ccc(O)c(CC=C(C)C)c4)c(=O)oc3c2C)OC1(C)C
6.5 µM: IC50 (second compound 0.1 µM) | IC50 (second compound 3.16 µM)
6.48 µM: IC50 (second compound 10 µM)
6.17 µM: IC50 (second compound 1 µM)
6.47 µM: IC50 (second compound 0.0316 µM)
6.58 µM: IC50 (second compound 0.316 µM)
inactive: viability, T/C [1] 107% | viability, T/C [2] 102% | viability, T/C (second compound 0.0316 µM, first compound 0.316 µM) 95.7% | viability, T/C (second compound 0.0316 µM, first compound 1 µM) 81.1% | viability, T/C (second compound 0.0316 µM, first compound 3.16 µM) 71.9% | viability, T/C (second compound 0.0316 µM, first compound 10 µM) 37.7% | viability, T/C [3] 90.4% | viability, T/C [4] 113% | viability, T/C (second compound 0.1 µM, first compound 0.316 µM) 101% | viability, T/C (second compound 0.1 µM, first compound 1 µM) 89.8% | viability, T/C (second compound 0.1 µM, first compound 3.16 µM) 68.6% | viability, T/C (second compound 0.1 µM, first compound 10 µM) 39.1% | viability, T/C [5] 119% | viability, T/C [6] 121% | viability, T/C (second compound 0.316 µM, first compound 0.316 µM) 101% | viability, T/C (second compound 0.316 µM, first compound 1 µM) 86.9% | viability, T/C (second compound 0.316 µM, first compound 3.16 µM) 64.5% | viability, T/C (second compound 0.316 µM, first compound 10 µM) 41.9% | viability, T/C [7] 110% | viability, T/C [8] 108% | viability, T/C (second compound 1 µM, first compound 0.316 µM) 93.8% | viability, T/C (second compound 1 µM, first compound 1 µM) 98.7% | viability, T/C (second compound 1 µM, first compound 3.16 µM) 68.7% | viability, T/C (second compound 1 µM, first compound 10 µM) 35.3% | viability, T/C [9] 109% | viability, T/C [10] 107% | viability, T/C (second compound 3.16 µM, first compound 0.316 µM) 106% | viability, T/C (second compound 3.16 µM, first compound 1 µM) 84.8% | viability, T/C (second compound 3.16 µM, first compound 3.16 µM) 73.2% | viability, T/C (second compound 3.16 µM, first compound 10 µM) 37.2% | viability, T/C [11] 121% | viability, T/C [12] 110% | viability, T/C (second compound 10 µM, first compound 0.316 µM) 110% | viability, T/C (second compound 10 µM, first compound 1 µM) 91.2% | viability, T/C (second compound 10 µM, first compound 3.16 µM) 71.7% | viability, T/C (second compound 10 µM, first compound 10 µM) 36.9%

Cn1ncnc1[C@H]1c2n[nH]c(=O)c3cc(F)cc(c23)N[C@@H]1c1ccc(F)cc1 + COC1C(OC(N)=O)C(O)C(Oc2ccc3c(O)c(NC(=O)c4ccc(O)c(CC=C(C)C)c4)c(=O)oc3c2C)OC1(C)C
inactive: viability, T/C (second compound 0.0316 µM, first compound 0.000316 µM) 94.6% | viability, T/C (second compound 0.0316 µM, first compound 0.001 µM) 104% | viability, T/C (second compound 0.0316 µM, first compound 0.00316 µM) 116% | viability, T/C (second compound 0.0316 µM, first compound 0.01 µM) 106% | viability, T/C [1] 108% | viability, T/C [2] 108% | viability, T/C (second compound 0.1 µM, first compound 0.000316 µM) 81.8% | viability, T/C (second compound 0.1 µM, first compound 0.001 µM) 93.8% | viability, T/C (second compound 0.1 µM, first compound 0.00316 µM) 113% | viability, T/C (second compound 0.1 µM, first compound 0.01 µM) 95.3% | viability, T/C [3] 99.7% | viability, T/C [4] 96.6% | viability, T/C (second compound 0.316 µM, first compound 0.000316 µM) 106% | viability, T/C (second compound 0.316 µM, first compound 0.001 µM) 106% | viability, T/C (second compound 0.316 µM, first compound 0.00316 µM) 101% | viability, T/C (second compound 0.316 µM, first compound 0.01 µM) 108% | viability, T/C [5] 95.4% | viability, T/C [6] 118% | viability, T/C (second compound 1 µM, first compound 0.000316 µM) 110% | viability, T/C (second compound 1 µM, first compound 0.001 µM) 99.7% | viability, T/C (second compound 1 µM, first compound 0.00316 µM) 106% | viability, T/C (second compound 1 µM, first compound 0.01 µM) 107% | viability, T/C [7] 103% | viability, T/C [8] 95.9% | viability, T/C (second compound 3.16 µM, first compound 0.000316 µM) 105% | viability, T/C (second compound 3.16 µM, first compound 0.001 µM) 106% | viability, T/C (second compound 3.16 µM, first compound 0.00316 µM) 98.2% | viability, T/C (second compound 3.16 µM, first compound 0.01 µM) 94.4% | viability, T/C [9] 95.9% | viability, T/C [10] 102% | viability, T/C (second compound 10 µM, first compound 0.000316 µM) 108% | viability, T/C (second compound 10 µM, first compound 0.001 µM) 97.2% | viability, T/C (second compound 10 µM, first compound 0.00316 µM) 101% | viability, T/C (second compound 10 µM, first compound 0.01 µM) 109% | viability, T/C [11] 100% | viability, T/C [12] 84%
> 0.1 µM: IC50 (second compound 0.0316 µM) | IC50 (second compound 0.1 µM) | IC50 (second compound 0.316 µM) | IC50 (second compound 1 µM) | IC50 (second compound 3.16 µM) | IC50 (second compound 10 µM)
